Tests used:
Conditions in all cases: primary screen
[1] = system: ENR+CD organoids (ISC to Paneth cell differentiation); test: Primary screen: CCh-stimulated lysozyme secretion LYZ.S, 2.5-D 384-well ENR+CD organoid differentiation; type: cell-based, mouse
Source text: (§1) High-throughput screening.

ENR+CD organoids = test: Primary screen: ATP (CellTiter-Glo 3D, CTG) cell number/viability, 2.5-D 384-well ENR+CD organoids;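 further: compounds given at plating and again on day 3 over a 6-day differentiation from ENR+CV stem-cell-enriched precursors, ATP measured on day 6, plate median as control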
[2] = system: ENR+CD organoids (ISC to Paneth cell differentiation); test: Primary screen: basal (non-stimulated) lysozyme secretion LYZ.NS, 2.5-D 384-well ENR+CD organoid differentiation; type: cell-based, mouse
Source text: as §1

Structure (SMILES) | Dose.FC.LYZ.S ([1]; dose 0.08 uM) [log2 fold change] | Dose.FC.LYZ.S ([1]; dose 0.40 uM) [log2 fold change] | Dose.FC.LYZ.S ([1]; dose 2.00 uM) [log2 fold change] | Dose.FC.LYZ.S ([1]; dose 10.00 uM) [log2 fold change] | Dose.FC.CTG (ENR+CD organoids; dose 0.08 uM) [log2 fold change] | Dose.FC.CTG (ENR+CD organoids; dose 0.40 uM) [log2 fold change] | Dose.FC.CTG (ENR+CD organoids; dose 2.00 uM) [log2 fold change] | Dose.FC.CTG (ENR+CD organoids; dose 10.00 uM) [log2 fold change] | Dose.FC.LYZ.NS ([2]; dose 0.08 uM) [log2 fold change] | Z.LYZ.NS (standard z score) ([2]; dose 0.08 uM) | Dose.FC.LYZ.NS ([2]; dose 0.40 uM) [log2 fold change] | Z.LYZ.NS (standard z score) ([2]; dose 0.40 uM) | Dose.FC.LYZ.NS ([2]; dose 2.00 uM) [log2 fold change] | Z.LYZ.NS (standard z score) ([2]; dose 2.00 uM) | Dose.FC.LYZ.NS ([2]; dose 10.00 uM) [log2 fold change] | Z.LYZ.NS (standard z score) ([2]; dose 10.00 uM) | Z.CTG (standard z score) (ENR+CD organoids; dose 0.08 uM) | Z.CTG (standard z score) (ENR+CD organoids; dose 0.40 uM) | Z.CTG (standard z score) (ENR+CD organoids; dose 2.00 uM) | Z.CTG (standard z score) (ENR+CD organoids; dose 10.00 uM)
O=c1cc(-c2ccc(O)cc2)oc2cc(O)cc(O)c12 [Apigenin] | 0.192 | 0.165 | 0.196 | 0.098 | 0.246 | 0.214 | 0.315 | 0.026 | 0.132 | 1.147 | 0.130 | 1.131 | 0.232 | 2.021 | 0.097 | 0.847 | – | – | – | –
COc1ccc(-n2nc(C(N)=O)c3c2C(=O)N(c2ccc(N4CCCCC4=O)cc2)CC3)cc1 [Apixaban] | 0.081 | 0.029 | 0.051 | −0.096 | −0.089 | 0.111 | −0.060 | −0.077 | 0.004 | 0.035 | −0.030 | −0.260 | 0.029 | 0.253 | −0.082 | −0.712 | – | – | – | –
O=C1C(=O)N(Cc2ccc(Cl)c(Cl)c2)c2ccccc21 [Apoptosis Activator 2] | 0.132 | 0.073 | −0.009 | −0.252 | 0.304 | 0.262 | 0.082 | −0.158 | 0.149 | 1.302 | 0.033 | 0.290 | −0.006 | −0.049 | −0.199 | −1.734 | 0.725 | 0.626 | 0.195 | −0.378
C[C@@H](O[C@H]1OCCN(Cc2n[nH]c(=O)[nH]2)[C@H]1c1ccc(F)cc1)c1cc(C(F)(F)F)cc(C(F)(F)F)c1 [Aprepitant] | 0.115 | 0.107 | −0.007 | −0.119 | 0.313 | 0.403 | 0.145 | 0.051 | 0.097 | 0.840 | 0.061 | 0.532 | 0.005 | 0.043 | −0.090 | −0.780 | – | – | – | –
O=C(O)c1cccc(-c2noc(-c3ccccc3F)n2)c1 [Ataluren (PTC124)] | 0.051 | 0.034 | 0.058 | 0.005 | 0.267 | −0.340 | −0.042 | 0.006 | 0.029 | 0.253 | 0.042 | 0.362 | 0.131 | 1.140 | 0.009 | 0.077 | 0.639 | −0.813 | −0.100 | 0.013
CN(C)C(=O)Nc1cccc(-c2ccc(N(C)C)cc2)c1 [Atglistatin] | 0.028 | −0.035 | 0.026 | 0.012 | 0.057 | 0.004 | −0.045 | −0.431 | 0.069 | 0.604 | 0.135 | 1.176 | 0.070 | 0.613 | −0.016 | −0.142 | 0.137 | 0.009 | −0.108 | −1.031
CC(C)c1c(C(=O)Nc2ccccc2)c(-c2ccccc2)c(-c2ccc(F)cc2)n1CC[C@@H](O)C[C@@H](O)CC(=O)[O-].CC(C)c1c(C(=O)Nc2ccccc2)c(-c2ccccc2)c(-c2ccc(F)cc2)n1CC[C@@H](O)C[C@@H](O)CC(=O)[O-].[Ca+2] [Atorvastatin Calcium] | 0.022 | −0.062 | −0.354 | −0.305 | −0.129 | −0.348 | −1.085 | −1.583 | −0.009 | −0.077 | 0.007 | 0.062 | −0.247 | −2.148 | −0.235 | −2.045 | −0.309 | −0.831 | −2.591 | −3.780
CCN1CCN(c2ccc(Nc3cc(N(C)C(=O)Nc4c(Cl)c(OC)cc(OC)c4Cl)ncn3)cc2)CC1 [BGJ398 (NVP-BGJ398)] | −0.036 | 0.002 | −0.062 | −0.350 | −0.054 | 0.026 | −0.185 | −1.500 | −0.002 | −0.017 | −0.060 | −0.520 | −0.052 | −0.450 | −0.269 | −2.345 | −0.128 | 0.063 | −0.442 | −3.583
CC[C@@H]1C(=O)N(C)c2cnc(Nc3ccc(C(=O)NC4CCN(C)CC4)cc3OC)nc2N1C1CCCC1 [BI 2536] | −0.163 | −0.220 | −0.224 | −0.185 | 0.029 | −0.534 | −0.511 | −1.028 | −0.104 | −0.907 | −0.129 | −1.121 | −0.134 | −1.168 | −0.109 | −0.953 | – | – | – | –
CC(C)CCN1c2nc(Nc3cc(F)c(O)c(F)c3)ncc2N(C)C(=O)C1C (stereo not shown) [BI-D1870] | 0.162 | 0.158 | 0.008 | −0.378 | 0.186 | 0.029 | −0.012 | −0.700 | 0.141 | 1.225 | 0.126 | 1.099 | −0.066 | −0.574 | −0.285 | −2.483 | 0.444 | 0.069 | −0.028 | −1.673

Reference: US20220323406A1, “METHODS AND COMPOSITIONS FOR DIFFERENTIATING STEM CELLS” (Massachusetts Institute of Technology, priority 2019, published 2022)
